From patent US12410143B2, “Therapeutic inhibitors of the reverse mode of ATP synthase” (priority 2017, dated 2025)
pEC50: −log10 of the molar value. Entries after “also recorded” stand apart in the source; their conditions may differ. Like-named read-outs stand apart in the source and are kept apart here.

What was measured:
F1F0 ATP hydrolase [1] = biological target: T1, F1F0 ATP hydrolase (Bos taurus, UniProt P00829+P19483); details: cited from earlier work
T1 construct: in NADH-linked and NADPH-linked sub-mitochondrial (SMP) assays respectively; host or cells: sub-mitochondrial particles (SMPs)

NCI-60 cancer cell lines [2] = experiment: NCI-60 one-dose in vitro assay; type: cell-based, human
Description: FIGS. 1, 2, 3, 4, 5, 6 show results from the NCI-60 one-dose in vitro assay at the Developmental Therapeutics Program (DTP), at the National Cancer Institute (NCI, Bethesda, MD, USA). Its protocol is well known to those of the art, and it tests the effect, if any, of a test compound on the growth/survivability of a cancer cell line as compared to the no compound control. […] However, a constant is that this 59 always has representative cell lines from leukemia, melanoma and cancers of the lung, colon, brain, ovary, breast, prostate and kidney. In a one-dose NCI compound test report, NCI report a number for each cell line, which they call “Growth Percent”, which is its growth relative to the no-compound control, and relative to the time zero number of cells. This reported parameter allows detection of both growth inhibition (values between 0 and 100) and lethality (values less than 0). For example, an NCI “Growth Percent” value of 100 means no growth inhibition. Value of 40 means 60% growth inhibition. Value of 0 means no net growth over the course of the experiment. Value of −40 means 60% lethality. Value of −100 means all cells are dead. I don't present NCI one-dose data in this original format. Instead, if the NCI “Growth Percent” value for a cell is positive, it is manipulated: [100 minus this original NCI-60 “Growth Percent” data point], to yield the percentage “Growth Inhibition”. If the original NCI “Growth Percent” value for a cell is negative, it is made positive to be the percentage of original cancer cells (at time zero) killed: “Percentage Killed” {and in these cases, of course, all growth has been inhibited, so percentage “Growth Inhibition” is then specified to be 100% for this cancer cell line}. In my one-dose figures, “Growth Inhibition” (0-100%) is presented on the x-axis and, if applicable, “Percentage Killed” (0-100%) further along on the x-axis. The latter is applicable when there is not just cancer growth inhibition but a reduction in the number of cancer cells from the start time i.e. when the compound is not merely slowing cancer growth, but is actively reducing the number of cancer cells from the starting number. In cases where there is only growth inhibition, only “Growth inhibition” is presented on the x-axis.

F1F0-ATP hydrolysis = biological target: T2, F1F0-ATP hydrolysis (Homo sapiens, UniProt P06576+P25705); details: cited from earlier work
T2 construct: BTB06584 potency information (isn't an EC50) is from a whole cell study [13]

mouse cortical neurons = details: 100 μM [13]; cited from earlier work
F1F0-ATP synthesis = biological target: T3, F1F0-ATP synthesis (Homo sapiens, UniProt P06576+P25705); details: [13]; cited from earlier work
T3 construct: BTB06584 potency information (isn't an EC50) is from a whole cell study [13]

[3] = test system: xenograft mouse models of cancer; details: data in [16]; cited from earlier work
[4] = test system: HL-1 cardiac muscle cell line; details: 3 μM; HL-1 cells; data from [12]; cited from earlier work
[5] = cited from earlier work
F1F0 ATP hydrolase [6] = biological target: T1, F1F0 ATP hydrolase; experiment: NADH-linked sub-mitochondrial (SMP) assay of F1F0 ATP hydrolysis; type: biochemical, bovine; details: NADH-linked and NADPH-linked SMP assays [5-6]
Description: For example, by separately assaying (in space and/or time) the compounds's effect upon ATP synthesis and ATP hydrolysis by ATP synthase (in its entirety or, less preferably, a component part of it). Then comparing these assay results. The greater the inhibition of reverse vs. forward mode, the more preferred this compound is for anti-cancer use. A further method is by screening/seeking compounds that inhibit ATP hydrolysis more than synthesis in submitochondrial particles (SMPs). ATP hydrolysis can be assayed by (non-limiting example) a spectroscopic assay for NADH fluorescence that incubates the SMPs with pyruvate kinase and lactate dehydrogenase enzymes (assay well-known to those of the art). ATP synthesis can be assayed by (non-limiting example) a spectroscopic assay for NADPH fluorescence that incubates the SMPs with hexokinase and glucose-6-phosphate dehydrogenase enzymes (assay well-known to those of the art). These assays are reported in any one of [5, 7, 8, 11, 12, 13, 36], and/or as referenced therein, all of which are herein incorporated in their entirety.
Compounds from, selected as specific anti-cancer therapeutics by the invention of this disclosure, selected because they inhibit the reverse, more than the forward, mode of ATP synthase. EC50 and IC50 used interchangeably. […]

[7] = rats, cited from earlier work
ex vivo rat heart = details: 10 μM [11]; cited from earlier work
NCI-60 cancer cell lines [8] = experiment: NCI-60 five-dose in vitro assay; type: cell-based, human; details: mean of all 59 cell lines
Description: The compounds of this invention act by a distinctly different mechanism, upon cancer cells, than oligomycin. […] The degree of (dis)similarity can be measured using the COMPARE algorithm, which employs a Pearson correlation coefficient. […] This mechanistic distinction is vital because polyketide F1F0 ATP synthase inhibitors are poisonous to normal cells, which means they fail in cancer xenograft mouse experiments and are without clinical utility.
Results from the NCI-60 five-dose in vitro assay at the Developmental Therapeutics Program (DTP), at the National Cancer Institute (NCI, Bethesda, MD, USA). In this assay, which is well known to those of the art, a compound is tested, in vitro, against 59 different cancer cell lines, sourced from 9 different tissue types, across 5 different concentrations. On the y-axis is the aforementioned “Growth Percentage” parameter used by NCI, which is growth relative to the no-compound control, and relative to the time zero number of cells. This parameter allows detection of both growth inhibition (values between 0 and 100) and lethality (values less than 0). […] Each cancer cell line has a GI50 value and the “mean GI50” of all 59 cell lines can be calculated.

[9] = Formula (I) examples, SMP data from [5], read-out: EC50 F1F0 ATP hydrolase

## N#CN=C(Nc1cccc(Cl)c1)NC(Cn1ccnc1)c1ccc(Cl)cc1Cl (centres unmarked) [3-CL/CN]
F1F0 ATP hydrolase [1]; [9]
  pEC50: 5.04

## O=C(Oc1cc(S(=O)(=O)c2ccccc2)ccc1[N+](=O)O)c1ccc(Cl)cc1 [BTB06584]
NCI-60 cancer cell lines [2]; 10 μM
  anti-cancer activity (NCI one-dose assay): No anti-cancer activity and none
NCI-60 cancer cell lines [2]; 100 μM
  anti-cancer activity (NCI one-dose assay): exerts anti-cancer activity
F1F0-ATP hydrolysis; 10 μM [13]
  inhibitory potency for F1F0-ATP hydrolysis: none
F1F0-ATP hydrolysis; whole cell study [13]
  concentration required for inhibiting F1F0-ATP hydrolysis: ≥ 100 µM
Mouse cortical neurons
  harm to normal cells (mouse cortical neurons): isn't harmful to normal cells
F1F0-ATP synthesis
  inhibition of F1F0-ATP synthesis: not inhibiting F1F0-ATP synthesis

## CC[C@H](O)C[C@@H]1O[C@]2(CC[C@H]1C)C[C@@H]1OC(=O)/C=C/[C@](C)(O)[C@@H](O)[C@H](C)[C@@H](O)[C@@H](O[C@H]3C[C@@H](OC)[C@@H](O)[C@@H](C)O3)[C@H](O)[C@](C)(O)CCC/C=C\[C@H]3C[C@H](C)CO[C@@]3(O)C[C@H](O2)[C@H]1C [cytovaricin]
[3]
  efficacy in xenograft mouse models of cancer: don't work

## CC[C@@H](O)C[C@H]1CCC[C@@]2(C[C@@H]3OC(=O)/C=C/[C@@](C)(O)[C@@H](O)[C@H](C)[C@@H](O)[C@H](O[C@H]4CC[C@H](N(C)C)[C@H](C)O4)[C@@H](O)[C@](C)(O)CCCCC/C=C/[C@@H]4CC(C)(C)O[C@@]4(O)C[C@H](O2)[C@H]3C)O1 [ossamycin]
[3]
  efficacy in xenograft mouse models of cancer: don't work

## CCC(=O)N=C(Nc1ccc(Cl)cc1)NC(Cn1ccnc1)c1ccc(Cl)cc1Cl (centres unmarked) [4-Cl/C(═O)Et]
F1F0 ATP hydrolase [1]; [9]
  pEC50: 5.64

## N#Cc1cccc(C(=O)/N=C(\Nc2ccc(Cl)cc2)NC(Cn2ccnc2)c2ccc(Cl)cc2Cl)c1 (centres unmarked) [19a]
NCI-60 cancer cell lines [2]; 10 μM
  anti-cancer activity (NCI one-dose assay): more anti-cancer activity than BMS-199264

## CC(=O)Nc1ccc(S(=O)(=O)N2Cc3ccccc3N(Cc3cnc[nH]3)C(CCc3ccccc3)C2)cc1 (centres unmarked) [4-(AcNH)—Ph/SO2/5-yl]
F1F0 ATP hydrolase [1]; Formula (II) examples, SMP data from [8], read-out: EC50F1F0ATP hydrolase
  pEC50: 5.53

## CC[C@H]1/C=C/C=C/C[C@@H](C)[C@H](O)[C@@](C)(O)C(=O)[C@@H](C)[C@H](O)[C@@H](C)C(=O)[C@@H](C)[C@H](O)[C@@H](C)/C=C/C(=O)O[C@@H]2[C@H](C)[C@H](CC1)O[C@@]1(O[C@@H](C[C@@H](C)O)[C@@H](C)CC1=O)[C@H]2C [Oligomycin B]
[4]
  O2 consumption change: −40%

## CC[C@H]1/C=C/C=C/C[C@@H](C)[C@H](O)[C@@](C)(O)C(=O)[C@@H](C)[C@H](O)[C@@H](C)C(=O)[C@@H](C)[C@H](O)[C@@H](C)/C=C/C(=O)O[C@@H]2[C@H](C)[C@H](CC1)O[C@]1(CC[C@H](C)[C@H](C[C@@H](C)O)O1)[C@H]2C [oligomycin]
F1F0 ATP hydrolase [1]; SMP assays [11]
  inhibition of F1F0 ATP hydrolysis versus F1F0 ATP synthesis: inhibits F1F0 ATP hydrolysis less than F1F0 ATP synthesis
[5]; 1 mg/kg, n=10
  time within which healthy rats are killed: ≤ 48 h
[5]; rats
  LD33: 0.5 mg/kg

## N#Cc1cccc(C(=O)/N=C(\Nc2ccc(Cl)cc2)N[C@H](Cn2ccnc2)c2ccc(Cl)cc2Cl)c1
F1F0 ATP hydrolase [6]
  [EC50 F1F0 ATP synthesis/EC50 F1F0 ATP hydrolysis] ratio: > 5,556
F1F0 ATP hydrolase [1]; Best Mode structure, SMP assay [5-6], read-out: EC50 against F1F0ATP hydrolysis
  pEC50: 7.74
[7]
  Cmax: 21 µM
  volume of distribution: 2.37 L/kg
[7]; intravenously applied drug
  half-life in blood: 2.1 h
[7]; polyethyleneglycol:water:ethanol, 1:1:1
  orally bioavailable: 47%

## N#CN=C(Nc1ccc(Cl)cc1)NC(Cn1ccnc1)c1ccc(Cl)cc1Cl (centres unmarked) [4-Cl/CN]
F1F0 ATP hydrolase [1]; [9]
  pEC50: 5.06

## CC1(C)Oc2ccc(S(=O)(=O)N3CCCCC3)cc2[C@@H](N(Cc2ncc[nH]2)c2ccc(Cl)cc2)[C@@H]1O [BMS-199264]
NCI-60 cancer cell lines [2]; 10 μM
  anti-cancer activity (NCI one-dose assay): exerts anti-cancer activity
Ex vivo rat heart
  harm to normal cells (ex vivo rat heart): does not harm ex vivo rat heart; also recorded: doesn't harm normal cells

## CC1(C)Oc2ccc(S(=O)(=O)N3CCCCC3)cc2[C@@H](N(Cc2ncc[nH]2)c2ccc(Cl)cc2)[C@@H]1O.Cl [BMS-199264 hydrochloride]
NCI-60 cancer cell lines [2]; 10 μM
  anti-cancer activity (NCI one-dose assay): Anti-cancer activity
NCI-60 cancer cell lines [2]; 100 μM
  anti-cancer activity (NCI one-dose assay): Anti-cancer activity
NCI-60 cancer cell lines [8]
  GI50: 3900 nM

## N#Cc1ccc(C(=O)N=C(Nc2ccc(Cl)cc2)NC(Cn2ccnc2)c2ccc(Cl)cc2Cl)cc1 (centres unmarked) [4-Cl/C(═O)4-CN—Ph]
F1F0 ATP hydrolase [1]; [9]
  pEC50: 6.55

## N#CN=C(Nc1cccc(Cl)c1Cl)NC(Cn1ccnc1)c1ccc(Cl)cc1Cl (centres unmarked) [2,3-Cl2/CN]
F1F0 ATP hydrolase [1]; [9]
  pEC50: 5.60

## N#Cc1cccc(C(=O)/N=C(\Nc2ccc(Cl)cc2)N[C@@H](Cn2ccnc2)c2ccc(Cl)cc2Cl)c1 [6a]
NCI-60 cancer cell lines [2]; 10 μM
  anti-cancer activity (NCI one-dose assay): exerted anti-cancer activity
F1F0 ATP hydrolase [1]; stereoisomers of 19a [5-6]
  inhibits F1F0-ATP hydrolysis: not
